The source of these data is patent US12060347B2 (BRISTOL-MYERS SQUIBB COMPANY, priority 2016, dated 2024).

pIC50: −log10 of the molar value.

For this experiment, the target named is T1, human PAR4 (Homo sapiens, UniProt Q96RI0).
T1 construct: expressed in transfected cells; host or cells: HEK293 PAR4 Clone 1.2A (BMS Arctic ID 383940)
T1 sequence (Q96RI0 18-385): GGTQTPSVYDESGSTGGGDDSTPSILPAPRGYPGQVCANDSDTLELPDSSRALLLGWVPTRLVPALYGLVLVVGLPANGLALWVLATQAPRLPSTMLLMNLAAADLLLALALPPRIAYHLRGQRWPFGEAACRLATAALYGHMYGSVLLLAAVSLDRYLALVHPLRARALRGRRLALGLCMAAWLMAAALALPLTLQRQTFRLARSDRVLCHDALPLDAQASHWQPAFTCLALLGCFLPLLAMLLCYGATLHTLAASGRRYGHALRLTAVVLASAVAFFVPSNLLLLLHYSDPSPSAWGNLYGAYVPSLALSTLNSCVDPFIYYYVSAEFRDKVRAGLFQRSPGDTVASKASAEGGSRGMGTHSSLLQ
The experiment in a line: PAR4 FLIPR assay: antagonism of agonist-peptide-induced calcium mobilization in PAR4-expressing HEK293 cells. Format: cell-based. The settings on record: H-Ala-Phe(4-F)-[…]NH2-induced intracellular calcium mobilization, 11-point curves. (Calcium flux is commonly read through the fluorescence of an indicator in the cells.)
As to `COc1ccc2oc(-c3cc(C)cc4nc(OC(F)F)cnc34)cc2c1OC` [Example 6, 2-(difluoromethoxy)-5-(4,5-dimethoxybenzofuran-2-yl)-7-methylquinoxaline], the pIC50 was 6.89.

For `Cc1cc(-c2nc3ccc(OCc4ccccc4)cc3s2)c2ncc(OC(F)F)nc2c1` [Example 7, 6-(benzyloxy)-2-(2-(difluoromethoxy)-7-methylquinoxalin-5-yl)benzo[d]thiazole], the pIC50 was 6.10.

Take `Cc1cc(-c2nc3c(Cl)cccc3s2)c2ncc(OC(F)F)nc2c1` [Example 8, 4-chloro-2-(2-(difluoromethoxy)-7-methylquinoxalin-5-yl)benzo[d]thiazole]: the pIC50 is 8.09. Then `Cc1cc(-c2nc3ncccc3s2)c2ncc(OC(F)F)nc2c1` [Example 9, 2-(2-(difluoromethoxy)-7-methylquinoxalin-5-yl)thiazolo[4,5-b]pyridine], with 6.66; and `COc1cc(C)c2nc(-c3cc(C)cc4nc(OC(F)F)cnc34)sc2c1` [Example 10, 2-(2-(difluoromethoxy)-7-methylquinoxalin-5-yl)-6-methoxy-4-methylbenzo[d]thiazole], with 8.66. With `Cc1cc(-c2nc3c(s2)CN(C(=O)OC(C)(C)C)CC3)c2ncc(OC(F)F)nc2c1` [Example 11, tert-butyl 2-(2-(difluoromethoxy)-7-methylquinoxalin-5-yl)-6,7-dihydrothiazolo[5,4-c]pyridine-5(4H)-carboxylate], the pIC50 was 5.77. Consider `COc1ccc(C)c2nc(-c3cc(C)cc4nc(OC(F)F)cnc34)sc12` [Example 12, 2-(2-(difluoromethoxy)-7-methylquinoxalin-5-yl)-7-methoxy-4-methylbenzo[d]thiazole], for which the pIC50 was 8.70.

`COc1c(F)cc(F)c2nc(-c3cc(C)cc4nc(OC(F)F)cnc34)sc12` [Example 13, 2-(2-(difluoromethoxy)-7-methylquinoxalin-5-yl)-4,6-difluoro-7-methoxybenzo[d]thiazole]: the pIC50 is 8.46. The value for `Cc1cc(-c2nc3cccc(NC(=O)OC(C)(C)C)c3s2)c2ncc(OC(F)F)nc2c1` [Example 14, tert-butyl (2-(2-(difluoromethoxy)-7-methylquinoxalin-5-yl)benzo[d]thiazol-7-yl) carbamate] was 8.17. As to `Cc1cc(-c2nc3cccc(OCc4cscn4)c3s2)c2ncc(OC(F)F)nc2c1` [Example 15, 2-(2-(difluoromethoxy)-7-methylquinoxalin-5-yl)-7-(thiazol-4-ylmethoxy)benzo[d]thiazole], the pIC50 is 7.42. The value for `Cc1cc(-c2nc3ccc(OCCNC(=O)OC4CCOC4)cc3s2)c2ncc(OC(F)F)nc2c1` (centres unmarked) [Example 16, tetrahydrofuran-3-yl (2-((2-(2-(difluoromethoxy)-7-methylquinoxalin-5-yl)benzo[d]thiazol-6-yl)oxy)ethyl)carbamate] was 7.10; that for `Cc1cc(-c2nc3cccc(OCCOc4ccccc4)c3s2)c2ncc(OC(F)F)nc2c1` [Example 17, 2-(2-(difluoromethoxy)-7-methylquinoxalin-5-yl)-7-(2-phenoxyethoxy)benzo[d]thiazole] was 7.89; that for `Cc1cc(-c2nc3cccc(OCCOCc4ccccc4)c3s2)c2ncc(OC(F)F)nc2c1` [Example 18, 7-(2-(benzyloxy)ethoxy)-2-(2-(difluoromethoxy)-7-methylquinoxalin-5-yl) benzo[d]thiazole] was 7.01. The value for `Cc1cc(-c2nc3ccc(OCCNC(=O)OCC4CCCO4)cc3s2)c2ncc(OC(F)F)nc2c1` (centres unmarked) [Example 19, (Tetrahydrofuran-2-yl)methyl (2-((2-(2-(difluoromethoxy)-7-methylquinoxalin-5-yl)benzo[d]thiazol-6-yl)oxy)ethyl)carbamate] was 7.39; that for `Cc1cc(-c2nc3ccc(OCCNC(=O)OC4CCOCC4)cc3s2)c2ncc(OC(F)F)nc2c1` [Example 20, tetrahydro-2H-pyran-4-yl (2-((2-(2-(difluoromethoxy)-7-methylquinoxalin-5-yl)benzo[d]thiazol-6-yl)oxy)ethyl)carbamate] was 7.52; that for `Cc1cc(-c2nc3cccc(NC(=O)OC4CCOCC4)c3s2)c2ncc(OC(F)F)nc2c1` [Example 21, tetrahydro-2H-pyran-4-yl (2-(2-(difluoromethoxy)-7-methylquinoxalin-5-yl)benzo[d]thiazol-7-yl)carbamate] was 8.48. Then `Cc1cc(-c2nc3cccc(NC(=O)OCC4CCCO4)c3s2)c2ncc(OC(F)F)nc2c1` (centres unmarked) [Example 22, (Tetrahydrofuran-2-yl)methyl (2-(2-(difluoromethoxy)-7-methylquinoxalin-5-yl)benzo[d]thiazol-7-yl)carbamate], with 8.74. As to `COc1ccc2nc(-c3cc(C)cc4nc(OC(F)F)cnc34)sc2n1` [Example 23, 2-(2-(difluoromethoxy)-7-methylquinoxalin-5-yl)-5-methoxythiazolo[5,4-b]pyridine], the pIC50 was 8.28. The value for `COc1cncc2nc(-c3cc(C)cc4nc(OC(F)F)cnc34)sc12` [Example 24, 2-(2-(difluoromethoxy)-7-methylquinoxalin-5-yl)-7-methoxythiazolo[4,5-c]pyridine] was 8.70; that for `Cc1cc(-c2cc3c(o2)CCCC3NC(=O)OC(C)(C)C)c2ncc(OC(F)F)nc2c1` (centres unmarked) [Example 25, tert-butyl (2-(2-(difluoromethoxy)-7-methylquinoxalin-5-yl)-4,5,6,7-tetrahydrobenzofuran-4-yl)carbamate] was 6.89; that for `COc1cnc2c(-c3nc4c(C)cc(OCCNS(=O)(=O)c5ccc(F)cc5)cc4s3)cc(C)cc2n1` [Example 26, 4-fluoro-N-(2-((2-(2-methoxy-7-methylquinoxalin-5-yl)-4-methylbenzo[d]thiazol-6-yl)oxy)ethyl)benzenesulfonamide] was 8.48.

As for `COc1cnc2c(-c3nc4c(Cl)cc(OCCNS(=O)(=O)c5ccccc5)cc4s3)cc(C)cc2n1` [Example 27, N-(2-((4-chloro-2-(2-methoxy-7-methylquinoxalin-5-yl)benzo[d]thiazol-6-yl)oxy)ethyl)benzenesulfonamide], the pIC50 was 8.27. The value for `COc1cnc2c(-c3nc4c(Cl)cc(OCCNS(=O)(=O)c5ccc(F)cc5)cc4s3)cc(C)cc2n1` [Example 28, N-(2-((4-chloro-2-(2-methoxy-7-methylquinoxalin-5-yl)benzo[d]thiazol-6-yl)oxy)ethyl)-4-fluorobenzenesulfonamide] was 8.52. Consider `COCc1cnc2c(-c3nc4c(C)cc(OCCNS(=O)(=O)c5ccc(F)cc5)cc4s3)cc(C)cc2n1` [Example 29, 4-fluoro-N-(2-((2-(2-(methoxymethyl)-7-methylquinoxalin-5-yl)-4-methylbenzo[d]thiazol-6-yl)oxy)ethyl)benzenesulfonamide], for which the negative logarithm of the IC50 (pIC50) is 8.85. The value for `CCOc1cnc2c(-c3nc4c(C)cc(OCCNS(=O)(=O)c5ccc(F)cc5)cc4s3)cc(C)cc2n1` [Example 30, N-(2-((2-(2-ethoxy-7-methylquinoxalin-5-yl)-4-methylbenzo[d]thiazol-6-yl)oxy)ethyl)-4-fluorobenzenesulfonamide] was 8.33; that for `CCc1cnc2c(-c3nc4c(C)cc(OCCNS(=O)(=O)c5ccc(F)cc5)cc4s3)cc(C)cc2n1` [Example 31, N-(2-((2-(2-ethyl-7-methylquinoxalin-5-yl)-4-methylbenzo[d]thiazol-6-yl)oxy)ethyl)-4-fluorobenzenesulfonamide] was 6.62.

One may read the pIC50 as the negative decadic logarithm of the IC50, by convention in mol/L.
